Assay results from US12215123B2, “Cordycepin-based derivatized compound with anti-tumor effect” (NANJING TECH UNIVERSITY, priority 2022, dated 2025).
Where a name gives a salt, the structure may show the parent alone. Read-outs that look alike come from different tables or passages of the source.

What was measured:
[1] = tested on: gastric cancer cell line AGS; assay: MTT proliferation, gastric cancer cell line AGS; format: cell-based; conditions: MTT, 72 hours, AGS; read-out: IC50 (μM) in gastric cancer cells, AGS
Method: (§1) The method for determining inhibitory activities of the compounds on the proliferation of tumor cells by an MTT method is as follows: a bottle of cells in a good state in an exponential growth phase is added with 0.25% trypsin digestive juice, the digestion makes adherent cells fall off, with 2 to 4×10^4 cells/mL, and a cell suspension is prepared. The cell suspension is inoculated on a 96-well plate, with 90 μL/well, and cultured in a constant-temperature CO2 incubator for 24 hours. The prepared compounds are added for testing, with 10 μL/well, and cultured for 72 hours. An MTT reagent is added into a 96-well plate, with 10 μL/well, and reacts in an incubator for 4 hours to absorb a supernatant, and then dimethyl sulfoxide is added, with 100 μL/well. After a crystal is dissolved, an absorbance of each well at a wavelength of 570 nm is measured by an enzyme-linked immunosorbent assay instrument, and a cell inhibition rate is calculated. An S curve is made with a compound concentration and a corresponding inhibition rate. Therefore, IC50 of a corresponding compound is obtained.
(§2) Anti-tumor dose-effect relationship curves of the cordycepin and 40 compounds prepared in gastric cancer cell lines AGS and BGC-823 were analyzed by an MTT experimental method.

[2] = tested on: small cell lung cancer cell line H69; assay: MTT proliferation, small cell lung cancer cell line H69; format: cell-based; conditions: MTT, 72 hours, H69; read-out: IC50 (μM) of compounds in small cell lung cancer cells, H69
Method: as §1
(§3) Anti-tumor dose-effect relationship curves of cordycepin and compounds 1, 2, 4, 5, 7, 8, 10, 12, 16, 18, 21, 23, 24, 35 and 38 in small cell lung cancer cell lines H1048, H446 and H69 were analyzed by an MTT experimental method.

[3] = tested on: small cell lung cancer cell line H1048; assay: MTT proliferation, small cell lung cancer cell line H1048; format: cell-based; conditions: MTT, 72 hours, H1048, read-out: IC50 (μM) of compounds in small cell lung cancer cells, H1048
Method: as §1, §3

[4] = tested on: gastric cancer cell line BGC-823; assay: MTT proliferation, gastric cancer cell line BGC-823; format: cell-based; conditions: MTT, 72 hours, BGC-823, read-out: IC50 (μM) in gastric cancer cells, BGC-823
Method: as §1, §2

[5] = tested on: small cell lung cancer cell line H446; assay: MTT proliferation, small cell lung cancer cell line H446; format: cell-based; conditions: MTT; for IC50: 72 hours, H446, read-out: IC50 (μM) of compounds in small cell lung cancer cells, H446
Method: as §1, §3

[6] = tested on: wild-type AB-line zebrafish; conditions: 3 dpf to 5 dpf, 35° C.; survival rate>90% and teratogenicity<20%
Method: The zebrafish model is a wild-type AB-line zebrafish from College of Biotechnology and Pharmaceutical Engineering, Nanjing Tech University, and is carried out by a natural mating reproduction method, with 30 zebrafish of 2 dpf in each experimental group. The zebrafish is fed in fish culture water at 28° C. (water quality:200 mg of instant sea salt and CaCO3 are added into 1 L of reverse osmosis water with a conductivity of 480 uS/cm to 510 uS/cm, a pH value of 6.9 to 7.2, and a hardness of 53.7 mg/L to 71.6 mg/L), and the feeding management meets the requirements of international AAALAC certification.
240 3 dpf wild-type AB-line zebrafish were randomly selected in an 8-well plate, with 30 zebrafish in each well, and 3 mL of fish culture water in each well, the cordycepin was diluted according to a maximum lethal dose, dissolved in DMSO, and added into each well according to a concentration gradient (the maximum lethal dose was diluted by 100 times, in which 8 concentration gradient values were taken for the experiment), and meanwhile, a normal control group, a solvent control group G (5% glucose) and a solvent control group D (DMSO) were set. During the experiment, the zebrafish in each group were cultured at 35° C., after the zebrafish were treated to be 5 dpf with a sample to be tested, lethal and developmental malformation conditions of the zebrafish in different doses were investigated respectively, and a maximum tolerance dose (MTD) of the sample to be tested to normal zebrafish was determined under a concentration when survival rate>90% and teratogenicity<20%.

Row | Molecule | IC50 [1] | IC50 ([4]; Homo sapiens) | IC50 [2] | IC50 [4] | further results
1 | Nc1ncnc2c1ncn2[C@@H]1O[C@H](COCCO)CC1O (stereo partly shown) [Compound 1] | 81.7 µM | – | 20.6 µM | 64.4 µM | IC50 [3]: 27.4 µM; IC50 [5]: 23.8 µM
2 | COC(=O)C(NP(=O)(OC[C@@H]1CC(O)[C@H](n2cnc3c(N)ncnc32)O1)Oc1ccccc1)C(C)C (stereo partly shown) [Compound 6] | 66.8 µM | 73.2 µM | – | – | Maximum tolerance dose (MTD) in zebrafish model [6]: 384 µM
3 | CC(C)[C@H](N)C(=O)OCC(CO)OCC1CC(O)C(n2cnc3c(N)ncnc32)O1 (stereo partly shown) [Compound 8, 2-(-5-(6-amino-9H-purin-9-yl)-4-hydroxytetrahydrofuran-2-yl)methoxy)-3-hydroxypropyl valine salt] | 27.8 µM | – | 14.8 µM | 18.8 µM | IC50 [3]: 14.5 µM; IC50 [5]: 10.5 µM
4 | NC1=CS(=O)(=O)OC12C[C@@H](COP(=O)(O)O)O[C@H]2n1cnc2c(N)ncnc21 (stereo partly shown) [Compound 9, (4-amino-6-(6-amino-9H-purin-9-yl)-2,2-dioxide-1,7-dioxane-2-thiaspiro[4.4]non-3-ene-8-yl)dihydromethyl phosphate] | 0.46 µM | 1.24 µM | – | – | Maximum tolerance dose (MTD) in zebrafish model [6]: 14 µM
5 | O=C(Nc1ncnc2c1ncn2[C@@H]1O[C@H](CO)CC1O)C1CCCC1 (stereo partly shown) [Compound 11] | 13 µM | 10.3 µM | – | – | Maximum tolerance dose (MTD) in zebrafish model [6]: 75 µM
6 | Nc1nc(F)nc2c1ncn2[C@@H]1O[C@H](COP(=O)(O)O)CC1O (stereo partly shown) [Compound 13, (5-(6-amino-2-fluoro-9H-purine-9-yl)-4-hydroxytetrahydrofuran-2-yl)dihydromethyl phosphate] | 32.5 µM | 36.8 µM | – | – | Maximum tolerance dose (MTD) in zebrafish model [6]: 0.05 µM
7 | CCCCCOC1CC(COCP(=O)(O)O)OC1n1cnc2c(NC(=O)c3ccncc3)ncnc21 (stereo not shown) [Compound 32, (((5-(6-(isonicotinamide)-9H-purine-9-yl)-4-(pentoxy)tetrahydrofuran-2-yl)methoxy)methyl)phosphonic acid] | 23 µM | – | – | 19.8 µM | –
8 | COC(=O)C(C)NP(=O)(Oc1ccccc1)OC1C[C@@H](CO)O[C@H]1n1cnc2c(N)ncnc21 (stereo partly shown) [Compound 33, methyl(((2-(6-amino-9H-purin-9-yl)-5-(hydroxymethyl)tetrahydrofuran-3-yl)oxy)(phenoxy)phosphoryl)alanine salt] | 36.5 µM | – | – | 29.5 µM | –
9 | N-(2-fluoro-3-hydroxy-5-(hydroxymethyl)tetrahydrofuran-2-yl)-9H-purine-6-yl)octadecylamine [Compound 21] | 2.46 µM | – | 2.95 µM | 4.38 µM | IC50 [3]: 6.38 µM; IC50 [5]: 4.58 µM
10 | N-(3-hydroxy-5-(hydroxymethyl)tetrahydrofuran-2-yl)-9H-purine-6-yl)octadecylamine [Compound 10] | 136 µM | – | 9.48 µM | 82.4 µM | IC50 [3]: 10.4 µM; IC50 [5]: 12.1 µM
11 | N-(4-chloro-3-hydroxy-5-(hydroxymethyl)tetrahydrofuran-2-yl)-9H-purine-6-yl)octadecylamine [Compound 22] | 45 µM | – | – | 53.7 µM | –
12 | isopropyl((((3-azide-4-hydroxy-5-(6-(isoniazid)-9H-purin-9-yl)tetrahydrofuran-2-yl)methoxy)methyl)(phenoxy)phosphoryl)alanine ester [Compound 28] | 3.47 µM | – | – | 5.42 µM | –

Further lines, with some results ahead:

Row | IC50 [1] | IC50 ([4]; Homo sapiens) | Molecule | IC50 [2] | IC50 [4] | further results
13 | 86.7 µM | 61.4 µM | Nc1ncnc2c1ncn2[C@@H]1O[C@H](COCP(=O)(O)O)CC1O (stereo partly shown) [Compound 3] | – | – | –
14 | 64.3 µM | 86.2 µM | CC(C)COP(=O)(OCC(C)C)OC[C@@H]1CC(O)[C@H](n2cnc3c(N)ncnc32)O1 (stereo partly shown) [Compound 4, (5-(6-amino-9H-purine-9-yl)-4-hydroxytetrahydrofuran-2-yl)diisobutyl methylphosphate] | 43.2 µM | – | IC50 ([3]; Homo sapiens, NCI-H1048, 72 h): 42.1 µM; IC50 ([5]; Homo sapiens, NCI-H446, 72 h): 54.3 µM
15 | 1.23 µM | 1.34 µM | O=C(Nc1ncnc2c1ncn2[C@@H]1O[C@H](CO)CC1O)c1ccncc1 (stereo partly shown) [Compound 12] | 19.5 µM | – | IC50 ([3]; Homo sapiens, NCI-H1048, 72 h): 22.2 µM; IC50 ([5]; Homo sapiens, NCI-H446, 72 h): 18.1 µM
16 | 12.9 µM | 18.6 µM | Nc1nc(S)nc2c1ncn2[C@@H]1O[C@H](COP(=O)(O)O)CC1O (stereo partly shown) [Compound 14, (5-(6-amino-2-mercapto-9H-purine-9-yl)-4-hydroxytetrahydrofuran-2-yl)dihydromethyl phosphate] | – | – | –
17 | 18.4 µM | 20.7 µM | Nc1ncnc2c1ncn2[C@@H]1O[C@H](COP(=O)(O)O)[C@H](F)C1O (stereo partly shown) [Compound 15, (5-(6-amino-9H-purine-9-yl)-3-fluoro-4-hydroxytetrahydrofuran-2-yl)dihydromethyl phosphate] | – | – | –
18 | 1.32 µM | 2.39 µM | CC(C)(C)C(=O)OCOP(=O)(COC[C@@H]1CC(O)[C@H](n2cnc3c(N)nc(F)nc32)O1)OCOC(=O)C(C)(C)C (stereo partly shown) [Compound 17] | – | – | –
19 | 0.89 µM | 1.31 µM | CC(C)(C)C(=O)OCOP(=O)(COC[C@@H]1CC(O)[C@H](n2cnc3c(NC(=O)c4ccncc4)ncnc32)O1)OCOC(=O)C(C)(C)C (stereo partly shown) [Compound 23] | 20.2 µM | – | IC50 ([3]; Homo sapiens, NCI-H1048, 72 h): 17.4 µM; IC50 ([5]; Homo sapiens, NCI-H446, 72 h): 16.4 µM
20 | 57.4 µM | 46.6 µM | CC(C)(C)C(=O)OCOP(=O)(COC[C@H]1O[C@@H](n2cnc3c(N)ncnc32)C(O)[C@H]1N=[N+]=[N-])OCOC(=O)C(C)(C)C (stereo partly shown) [Compound 26, (((((5-(6-amino-9H-purine-9-yl)-3-azide-4-hydroxytetrahydrofuran-2-yl)methoxy)methyl)phosphoryl)bis(oxy))bis(methylene)bis(2,2-dimethylpropionic acid)] | – | – | –
21 | 32.5 µM | 41.4 µM | CC(C)C(N)C(=O)OC1C[C@@H](CO)O[C@H]1n1cnc2c(N)ncnc21 (stereo partly shown) [Compound 29, 2-(6-amino-9H-purin-9-yl)-5-(hydroxymethyl)tetrahydrofuran-3-yl valine salt] | – | – | –
22 | 75.4 µM | 64.2 µM | CC(C)C(N)C(=O)OC1C[C@@H](COP(=O)(O)O)O[C@H]1n1cnc2c(N)ncnc21 (stereo partly shown) [Compound 30, 2-(6-amino-9H-purin-9-yl)-5-(phosphonoxy)methyl)tetrahydrofuran-3-yl valine salt] | – | – | –
23 | 41.2 µM | 33.6 µM | CC(C)C(N)C(=O)OC1C[C@@H](COP(=O)(O)O)O[C@H]1n1cnc2c(NC(=O)c3ccncc3)ncnc21 (stereo partly shown) [Compound 31, 2-(6-(isonicotinamide)-9H-purin-9-yl)-5-(phosphonyl)methyl)tetrahydrofuran-3-yl valine salt] | – | – | –
24 | 134 µM | 104 µM | Nc1nc(/C=C/Br)nc2c1ncn2[C@@H]1O[C@H](COP(=O)(O)O)CC1O (stereo partly shown) [Compound 38, (5-(6-amino-2-((E)-2-bromocarbonyl)-9H-purine-9-yl)-4-hydroxytetrahydrofuran-2-yl)dihydromethyl phosphate] | 1.25 µM | – | IC50 ([3]; Homo sapiens, NCI-H1048, 72 h): 1.37 µM; IC50 ([5]; Homo sapiens, NCI-H446, 72 h): 0.97 µM; killing effect on the three lines of cells in vitro ([5]; stated in words for all three lines H1048, H446 and H69): strong killing effect
25 | 164 µM | 189 µM | Nc1ncnc2c1ncn2C1OC(COC2CC(CO)C(O)C2O)CC1O (stereo not shown) [Compound 40, 3-((5-(6-amino-9H-purin-9-yl)-4-hydroxytetrahydrofuran-2-yl)methoxy)-5-(hydroxymethyl)cyclopentane-1,2-diol] | – | – | –
